Experiment [1] concerns secretion of interferon-beta from THP1 cells. The experiment in a line: IFN-β secretion in THP1 cell culture (5 h). The experiment is classed as cell-based. The settings on record: Homo sapiens, THP-1, 5 h, 30 uM cGAMP = 100%; for activation at 30 µM: compound at 30 μM, read-out: % Effect at 30 μM relative to 2′3′-cGAMP; for activation at 3 µM: compound at 3 uM, read-out: % Effect relative to 2′3′-cGAMP (@ 3 uM). A digest of the protocol: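 Thawed THP1 cells (0.8×10^6/mL, RPMI with 0.5% FBS) exposed to compounds 1.5–30000 nM (0.3% DMSO) for 5 h at 37 °C. Supernatant IFN-β quantified by AlphaLISA. Percent effect normalised to 30 uM cGAMP and DMSO controls; EC50 from 4-parameter fit.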

In a further experiment the target is T1, full-length HAQ STING (Homo sapiens, UniProt Q86WV6, G230A/H232R/R293Q/R71H).
T1 construct: AviTag (after GG linker) (C); HRV3C cleavage site (after GS linker) (C); HIS8 (C); made in house; host or cells: Trichoplusia ni (Hi-Five) insect cells infected with baculovirus (virus generated and amplified in Sf21 cells); used as a washed membrane preparation
Kind of experiment: 3H-cGAMP filtration binding assay (HAQ STING). The settings on record: for EC50: competition with tritiated cGAMP, HAQ STING membrane; for inhibition at 2 µM: at 2,000 nM compound. An outline of the steps:
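Hi-Five (T. ni) membranes overexpressing the STING variant (2.2 ug/ml working) preincubated with compound 60 min at RT in PBS, then [3H]cGAMP (8 nM working stock) added for 60 min at RT. Bound radioactivity captured on GF/B filters and counted by scintillation; EC50 from 4-parameter fit of control-normalized activity.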

A further experiment has as its target T2, full-length WT STING (Homo sapiens, UniProt Q86WV6, H232R).
T2 construct: AviTag (after gg linker) (C); HRV3C cleavage site (after gs linker) (C); HIS8 (C); made in house; host or cells: Trichoplusia ni (Hi-Five) insect cells infected with baculovirus (virus generated and amplified in Sf21 cells); used as a washed membrane preparation
Kind of experiment: 3H-cGAMP filtration binding assay (WT STING). The settings on record: for EC50: competition with tritiated cGAMP, WT STING membrane; for inhibition at 2 µM: at 2,000 nM compound. An outline of the steps: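 Competitive filtration binding of [3H]cGAMP (16 nM working stock) to T. ni membranes overexpressing full-length WT human STING, 60 min at RT in PBS. Bound radioactivity counted after GF/B filtration; 10-point 1:3 titration, EC50 from 4-parameter fit after control normalisation.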

T2 sequence (Q86WV6 with tags, fused parts or gaps H232R): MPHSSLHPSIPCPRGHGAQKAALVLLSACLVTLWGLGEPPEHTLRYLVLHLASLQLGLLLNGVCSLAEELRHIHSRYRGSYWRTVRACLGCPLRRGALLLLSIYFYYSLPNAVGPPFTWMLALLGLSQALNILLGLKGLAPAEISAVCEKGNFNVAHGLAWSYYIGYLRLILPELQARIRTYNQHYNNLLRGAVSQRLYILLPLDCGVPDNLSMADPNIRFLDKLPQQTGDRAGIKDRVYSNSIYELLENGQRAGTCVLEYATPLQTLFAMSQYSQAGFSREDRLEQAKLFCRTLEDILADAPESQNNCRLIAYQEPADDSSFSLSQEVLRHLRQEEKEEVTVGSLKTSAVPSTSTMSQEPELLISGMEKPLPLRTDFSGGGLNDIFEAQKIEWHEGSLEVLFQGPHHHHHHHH
T1 sequence (Q86WV6 with tags, fused parts or gaps R71H/G230A/H232R/R293Q): as the sequence (Q86WV6 with tags, fused parts or gaps H232R) above, with R71H, G230A, R293Q counted along it

For `COc1cc2sc(C(=O)C[C@H](C)C(=O)O)cc2c(F)c1OCCC(C)Oc1c(OC)cc2sc(C(=O)C[C@H](C)C(=O)O)cc2c1F` (stereo partly drawn) [Example 138, (2S,2′S)-4,4′-((butane-1,3-diylbis(oxy))bis(4-fluoro-6-methoxybenzo[b]thiophene-5,2-diyl))bis(2-methyl-4-oxobutanoic acid)], the activation at 30 µM in experiment [1] worked out at 89%. The EC50 at full-length HAQ STING and at full-length WT STING was 2 nM in each case.

For the compound `COc1cc2sc(C(=O)C[C@H](C)C(=O)O)cc2c(F)c1OCCCC(C)Oc1c(OC)cc2sc(C(=O)C[C@H](C)C(=O)O)cc2c1F` (stereo partly drawn) [Example 139, (2S,2′S)-4,4′-((pentane-1,4-diylbis(oxy))bis(4-fluoro-6-methoxybenzo[b]thiophene-5,2-diyl))bis(2-methyl-4-oxobutanoic acid)], in experiment [1], the activation at 30 µM is 57%. Besides, the EC50 at full-length HAQ STING is 3 nM; at full-length WT STING it was 12 nM.

As for `COc1cc2sc(C(=O)C[C@H](C)C(=O)O)cc2c(F)c1OC(C)CCC(C)Oc1c(OC)cc2sc(C(=O)C[C@H](C)C(=O)O)cc2c1F` (stereo partly drawn) [Example 140, (2S,2′S)-4,4′-((hexane-2,5-diylbis(oxy))bis(4-fluoro-6-methoxybenzo[b]thiophene-5,2-diyl))bis(2-methyl-4-oxobutanoic acid)], the activation at 3 µM in experiment [1] is 31%. This compound also had an EC50 on full-length HAQ STING of 2150 nM. On full-length WT STING (at 7,000 nM compound), this compound showed an inhibition at 7 µM of 28%.

As for `COc1cc2sc(C(=O)C[C@H](C)C(=O)O)cc2c(F)c1OCC(C)COc1c(OC)cc2sc(C(=O)C[C@H](C)C(=O)O)cc2c1F` [Example 142, (2S,2′S)-4,4′-(((2-methylpropane-1,3-diyl)bis(oxy))bis(4-fluoro-6-methoxybenzo[b]thiophene-5,2-diyl))bis(2-methyl-4-oxobutanoic acid)], the activation at 30 µM in experiment [1] stood at 81%. Besides, the EC50 on full-length HAQ STING and on full-length WT STING was 1 nM each time.

Regarding `COc1cc2sc(C(=O)C[C@H](C)C(=O)O)cc2c(F)c1OCC(C)(C)COc1c(OC)cc2sc(C(=O)C[C@H](C)C(=O)O)cc2c1F` [Example 143, (2S,2′S)-4,4′-(((2,2-dimethylpropane-1,3-diyl)bis(oxy))bis(4-fluoro-6-methoxybenzo[b]thiophene-5,2-diyl))bis(2-methyl-4-oxobutanoic acid)], the activation at 3 µM in experiment [1] came to 26%. Also, the values for the EC50 at full-length HAQ STING and on full-length WT STING were 75 nM and 1450 nM, respectively.

`COc1cc2sc(C(=O)C[C@H](C)C(=O)O)cc2c(F)c1OCC1(COc2c(OC)cc3sc(C(=O)C[C@H](C)C(=O)O)cc3c2F)CC1` [Example 144, (2S,2′S)-4,4′-(((cyclopropane-1,1-diylbis-(methylene))bis (oxy))bis(4-fluoro-6-methoxybenzo[b]thiophene-5,2-diyl))bis(2-methyl-4-oxobutanoic acid)]: the activation at 30 µM in experiment [1] amounted to 8%. Besides, the results for the EC50 on full-length HAQ STING and on full-length WT STING were 15 nM and 93 nM, respectively.

Consider `COc1cc2sc(CC[C@H](C)C(=O)O)cc2cc1OCCCOc1c(OC)cc2sc(C(=O)C[C@H](C)C(=O)O)cc2c1Cl` [Example 145, (S)-4-(5-(3-((2-((S)-3-carboxybutyl)-6-methoxybenzo[b]thiophen-5-yl)oxy)propoxy)-4-chloro-6-methoxybenzo[b]thiophen-2-yl)-2-methyl-4-oxobutanoic acid], for which, in experiment [1], the activation at 3 µM is 59%. A half-maximal response at full-length HAQ STING (EC50) required 143 nM. Testing at 2 µM at full-length WT STING gave an inhibition of 47%.

Consider `COc1cc2sc(CC[C@H](C)C(=O)O)cc2cc1OCCCOc1c(OC)cc2sc(C(=O)C[C@H](C)C(=O)O)cc2c1Br` [Example 146, (S)-4-(4-bromo-5-(3-((2-((S)-3-carboxybutyl)-6-methoxybenzo[b]thiophen-5-yl)oxy)propoxy)-6-methoxybenzo[b]thiophen-2-yl)-2-methyl-4-oxobutanoic acid], for which the activation at 3 µM in experiment [1] was found to be 27%. Besides, the inhibition at 2 µM was found to be 55% at full-length HAQ STING and 18% on full-length WT STING.

As for `COc1cc2sc(CC[C@H](C)C(=O)O)cc2c(F)c1OCCCOc1c(OC)cc2sc(C(=O)C[C@H](C)C(=O)O)cc2c1Cl` [Example 147, (S)-4-(5-(3-((2-((S)-3-carboxybutyl)-4-fluoro-6-methoxybenzo[b]thiophen-5-yl)oxy)propoxy)-4-chloro-6-methoxybenzo[b]thiophen-2-yl)-2-methyl-4-oxobutanoic acid], the activation at 3 µM in experiment [1] turned out to be 71%. For the same compound, the EC50 on full-length HAQ STING was determined as 18 nM; on full-length WT STING, 207 nM.

In the case of `COc1cc2sc(CC[C@H](C)C(=O)O)cc2c(F)c1OCCCOc1c(OC)cc2sc(C(=O)C[C@H](C)C(=O)O)cc2c1Br` [Example 148, (S)-4-(4-bromo-5-(3-((2-((S)-3-carboxybutyl)-4-fluoro-6-methoxybenzo[b]thiophen-5-yl)oxy)propoxy)-6-methoxybenzo[b]thiophen-2-yl)-2-methyl-4-oxobutanoic acid], the activation at 3 µM in experiment [1] came out at 41%. The values for the EC50 on full-length HAQ STING and at full-length WT STING were 395 nM and 411 nM, respectively.

As for `COc1cc2sc(CCC(C)(C)C(=O)O)cc2c(F)c1OCCCOc1c(OC)cc2sc(C(=O)CC(C)(C)C(=O)O)cc2c1F` [Example 149, 4-(5-(3-((2-(3-carboxy-3-methylbutyl)-4-fluoro-6-methoxybenzo[b]thiophen-5-yl)oxy)propoxy)-4-fluoro-6-methoxybenzo[b]thiophen-2-yl)-2,2-dimethyl-4-oxobutanoic acid], the activation at 3 µM in experiment [1] was 70%. Further, the EC50 on full-length HAQ STING was 4 nM; on full-length WT STING it was 46 nM.

For `COc1cc2sc(C(=O)C[C@H](C)C(=O)O)cc2cc1OCCCOc1c(OC)cc2sc(CC[C@H](C)C(=O)O)cc2c1Cl` [Example 150, (S)-4-(5-(3-((2-((S)-3-carboxybutyl)-4-chloro-6-methoxybenzo[b]thiophen-5-yl)oxy)propoxy)-6-methoxybenzo[b]thiophen-2-yl)-2-methyl-4-oxobutanoic acid], the activation at 3 µM in experiment [1] was 52%. Further, the EC50 on full-length HAQ STING was determined as 213 nM; at full-length WT STING, 1040 nM.

As for `COc1cc2sc(C(=O)C[C@H](C)C(=O)O)cc2c(F)c1OCCCOc1c(OC)cc2sc(CC[C@H](C)C(=O)O)cc2c1Cl` [Example 151, (S)-4-(5-(3-((2-((S)-3-carboxybutyl)-4-chloro-6-methoxybenzo[b]thiophen-5-yl)oxy)propoxy)-4-fluoro-6-methoxybenzo[b]thiophen-2-yl)-2-methyl-4-oxobutanoic acid], in experiment [1], the activation at 3 µM turned out to be 63%. Also, the EC50 on full-length HAQ STING came to 77 nM; on full-length WT STING, 1040 nM.

For `COc1cc2sc(CC[C@H](C)C(=O)O)cc2c(Cl)c1OCCCOc1c(OC)cc2sc(C(=O)C[C@H](C)C(=O)O)cc2c1Cl` [Example 152, (S)-4-(5-(3-((2-((S)-3-carboxybutyl)-4-chloro-6-methoxybenzo[b]thiophen-5-yl)oxy)propoxy)-4-chloro-6-methoxybenzo[b]thiophen-2-yl)-2-methyl-4-oxobutanoic acid], the activation at 3 µM in experiment [1] amounted to 7%. Also, the values for the inhibition at 2 µM at full-length HAQ STING and on full-length WT STING were 35% and 3%, respectively.

Regarding `COc1cc2sc(C(=O)C[C@H](C)C(=O)O)cc2c(Cl)c1OCCOc1c(OC)cc2sc(C(=O)C[C@H](C)C(=O)O)cc2c1Cl` [Example 153, (2S,2′S)-4,4′-((ethane-1,2-diylbis(oxy))bis(4-chloro-6-methoxybenzo[b]thiophene-5,2-diyl))bis(2-methyl-4-oxobutanoic acid)], the activation at 3 µM in experiment [1] was determined as 137%. Also, the values for the EC50 on full-length HAQ STING and on full-length WT STING were 3 nM and 10 nM, respectively.

The EC50 is the concentration at which the effect is half-maximal. Read a high EC50 as weaker potency. In general, inhibition refers to the drop in the measured response relative to a control, in per cent. Read a high inhibition as a response far below the control.

The values above are taken from patent US10793557B2, “Sting agonist compounds” (Merck Sharp & Dohme Corp., priority 2018, dated 2020).
